Test results published in US20140295402A1, “METHODS AND MATERIALS FOR PROLONGING USEFUL STORAGE OF RED BLOOD CELL PREPARATIONS AND PLATELET PREPARATIONS” (priority 2011, published 2014).

What was measured:
platelets = assay: ATP secretion of platelets induced with 1 μM thrombin (Zylux luminometer); format: cell-based, human; settings: after 24 hours storage at room temperature
Method: ATP secretion was performed using a Zylux luminometer where the secretion was induced using 1 μM thrombin. […] However, the CO2 treated platelets had approximately 80% of baseline secretion after 24 hours storage.

S. pyogenes = assay: Bacterial growth in inoculated apheresis platelet unit, quantitative culture; format: cell-based; settings: platelets exposed to 99% CO2 for 10 minutes
Method: (§1) Outdated apheresis platelet unit (day 6) was obtained from the Mayo Clinic components laboratory. About half of the platelet unit was perfused with 99% CO2 gas for 10 minutes with mixing. Control samples without CO2 exposure and CO2-treated samples of 10 mL volume were inoculated with clinical isolates of eight different organisms. Control and CO2 samples were spiked with identical bacterial loads. Quantitative culture using 5% sheep blood agar plates was conducted immediately following inoculation (0 hours) and at 24 and 48 hour time points. Time 0 hour inoculation load was selected to compensate for observed “spike and die” in outdated apheresis platelet units. The time 0 hour value represented the value of the initial spike.

E. coli = assay: as above; format: cell-based; settings: platelets exposed to 99% CO2 for 10 minutes
Method: as §1

Bacillus cereus [1] = assay: as above; format: cell-based; settings: platelets exposed to 99% CO2 for 10 minutes
Method: as §1

Klebsiella oxytoca = assay: as above; format: cell-based; settings: platelets exposed to 99% CO2 for 10 minutes
Method: as §1

S. epidermidis = assay: as above; format: cell-based; settings: platelets exposed to 99% CO2 for 10 minutes
Method: as §1

Corynebacterium = assay: as above; format: cell-based; settings: platelets exposed to 99% CO2 for 10 minutes
Method: as §1

S. aureus = assay: as above; format: cell-based; settings: platelets exposed to 99% CO2 for 10 minutes
Method: as §1

Enterobacter cloacae = assay: as above; format: cell-based; settings: platelets exposed to 99% CO2 for 10 minutes
Method: as §1

Bacillus cereus [2] = assay: Bacterial growth in spiked PRP, quantitative culture after 30 hours; format: cell-based; settings: PRP spiked with 10 CFU, approximately 30 hours at room temperature
Method: (§2) Clinical isolates of Bacillus cereus and Pseudomonas aeruginosa were spiked into control and CO2 treated platelets at a concentration of 10 CFU (i.e., 10 bacteria total, not 10 CFU/mL). The platelets were stored for approximately 30 hours at room temperature on a platelet agitator. After 30 hours, quantitative culture was performed on serial dilutions of the platelet sample on 5% sheep blood agar plates.

Pseudomonas aeruginosa = assay: as above; format: cell-based; settings: PRP spiked with 10 CFU, approximately 30 hours at room temperature
Method: as §2

[3] = test system: platelets in platelet-rich plasma (PRP); assay: Platelet aggregation of PRP by optical aggregometry after equilibration with 99% CO2; format: cell-based, human
Method: Fresh human whole blood was drawn into 3.2% sodium citrate, and platelet-rich plasma (PRP) was prepared. Control citrated PRP was stored at room temperature in a polypropylene tube. CO2 was exposed to the air/fluid interface of PRP using a 99.9% CO2 tank. CO2 was administered for approximately 60 seconds during which time the pH dropped from an average value of 7.4 to 6.4.
Using a Chronolog 700 platelet aggregometer, platelet aggregation was performed pre- and post-CO2 to ADP, AA, and Epi. Platelet aggregometry was carried out as described elsewhere (Born and Cross, J. Physiol., 168:178-195 (1963)). The assay was performed at 37° C. with a sample stir speed of 1200 r.p.m. Each sample consisted of 450 μL platelet rich plasma.
In another study, the impact of CO2 on platelet function was explored by equilibrating platelet-rich plasma (PRP) with 99% CO2. The PRP was prepared by low-speed centrifugation of blood anticoagulated with 3.2% sodium citrate and kept in capped polypropylene tubes. Platelet function was measured by optical aggregometry with ADP and epinephrine as triggers. Equilibration with CO2 under a positive flow of gas was monitored by the fall in pH from 7.2 to 6.4, which typically occurs within 60 seconds. Degassing of CO2 by a flow of room air over the PRP was verified by the return to pH 7.2. Immediately after removal of the PRP from the CO2 atmosphere, aggregation to ADP and epinephrine was suppressed (FIG. 18, first set). When the samples had returned to pH 7.2, aggregation to both triggers was restored (FIG. 18, center set).

[4] = test system: red blood cell preparation; assay: Storage of red blood cell preparations in blood bags with CO2: pCO2, lactate, glucose and pH levels; format: cell-based; settings: for Glucose / Lactate: red blood cell preparation
Method: Red blood cells were collected and processed using standard techniques and stored in standard blood bags. Prior to collecting the red blood cells, an empty blood bag containing anti-coagulated citrate phosphate dextrose with adenine (AS1) was flushed with CO2 for one minute. The collection bag was then filled with blood from a donor. Next, 50 cubic centimeters of CO2 were added to the bag via the sterile docking port. The bag was gently inverted for 30 seconds and then placed upright. Using an empty syringe, the 50 cubic centimeters of air/CO2 was removed from the bag through the sterile docking port. The controls were red blood cell preparations placed in blood bags not flushed with CO2 and not exposed to 50 cubic centimeters of CO2.
The control and CO2 treated red blood cell preparations were tested for pCO2 (or pO2) levels, lactate levels, glucose levels, and pH levels at days 0, 14, and 21 (Table 1). […] This fall in pH is reversible, and pH levels can return to normal values of […] when normal pCO2 levels (e.g., 40-60 mmHg) are re-established.

[5] = storage with CO2, compared to controls

With O=C=O [CO2] as the molecule, how does the “ATP secretion, of baseline” value (platelets) read?
Its value is “approximately 80%”.

And the bacterial growth (S. pyogenes; 0 hours (initial spike))?
The bacterial growth was 1.55E+03 CFU/mL.

And the bacterial growth (S. pyogenes; 24 hours)?
Its bacterial growth is 1.20E+05 CFU/mL.

And the bacterial growth (S. pyogenes; 48 hours)?
The bacterial growth was 8.00E+07 CFU/mL.

And the bacterial growth (E. coli; 24 hours)?
The bacterial growth was 1.80E+02 CFU/mL.

And the bacterial growth (E. coli; 48 hours)?
The bacterial growth was 5.20E+03 CFU/mL.

What about the bacterial growth (Bacillus cereus [1]; 0 hours (initial spike)) of the same molecule?
The bacterial growth was 1.00E+01 CFU/mL.

And the bacterial growth (Bacillus cereus [1]; 24 hours)?
The bacterial growth was “no”.

What about the bacterial growth (Bacillus cereus [1]; 48 hours) of the same molecule?
The bacterial growth was “no”.

And the bacterial growth (Klebsiella oxytoca; 0 hours (initial spike))?
Its bacterial growth is 8.10E+02 CFU/mL.

What about the bacterial growth (Klebsiella oxytoca; 24 hours) of the same molecule?
The bacterial growth was 1.15E+04 CFU/mL.

What about the bacterial growth (Klebsiella oxytoca; 48 hours) of the same molecule?
Its bacterial growth is 4.30E+05 CFU/mL.

What about the bacterial growth (S. epidermidis; 0 hours (initial spike)) of the same molecule?
Its bacterial growth is 6.10E+02 CFU/mL.

And the bacterial growth (S. epidermidis; 24 hours)?
The bacterial growth was 3.30E+02 CFU/mL.

And the bacterial growth (S. epidermidis; 48 hours)?
The bacterial growth was 4.20E+02 CFU/mL.

And the bacterial growth (Corynebacterium; 0 hours (initial spike))?
Its bacterial growth is 7.90E+02 CFU/mL.

And the bacterial growth (Corynebacterium; 24 hours)?
Its bacterial growth is 2.70E+02 CFU/mL.

What about the bacterial growth (Corynebacterium; 48 hours) of the same molecule?
Its bacterial growth is 4.20E+02 CFU/mL.

And the bacterial growth (S. aureus; 0 hours (initial spike))?
The bacterial growth was 1.17E+03 CFU/mL.

What about the bacterial growth (S. aureus; 24 hours) of the same molecule?
The bacterial growth was 3.20E+03 CFU/mL.

What about the bacterial growth (S. aureus; 48 hours) of the same molecule?
The bacterial growth was 2.70E+04 CFU/mL.

What about the bacterial growth (Enterobacter cloacae; 0 hours (initial spike)) of the same molecule?
The bacterial growth was 1.22E+03 CFU/mL.

What about the bacterial growth (Enterobacter cloacae; 24 hours) of the same molecule?
Its bacterial growth is 1.20E+06 CFU/mL.

And the bacterial growth (Enterobacter cloacae; 48 hours)?
The bacterial growth was 8.60E+07 CFU/mL.

And the bacterial growth (Bacillus cereus [2])?
The bacterial growth was “no growth”.

And the bacterial growth (Pseudomonas aeruginosa)?
The bacterial growth was “no growth”.

And the aggregation ([3]; after 24 hours under CO2)?
Its aggregation is “equivalent to that of controls”.

And the “aggregation to ADP and epinephrine” value ([3]; after samples had returned to pH 7.2)?
The value was “restored”.

What about the “aggregation to ADP and epinephrine” value ([3]; immediately after removal of the PRP from the CO2 atmosphere) of the same molecule?
Its value is “suppressed”.

And the Glucose ([4]; day 0 of storage)?
Its Glucose is 571 mg/dL.

And the Lactate ([4]; day 0 of storage)?
Its Lactate is 1.2 µmol/mL.

And the Glucose ([4]; day 14 of storage)?
Its Glucose is 503 mg/dL.

And the Lactate ([4]; day 14 of storage)?
The Lactate was 5 µmol/mL.

And the Glucose ([4]; day 21 of storage)?
Its Glucose is 478 mg/dL.

And the Lactate ([4]; day 21 of storage)?
Its Lactate is 5.3 µmol/mL.

And the glucose consumption [4, 5]?
Its glucose consumption is “inhibition”.

And the lactate formation [4, 5]?
The lactate formation was “inhibition”.
